Measurements published in article PMC7316143 (Drug testing and analysis, 2018).

What was measured:
Format in all cases: biochemical
DAT [1] = biological target: T1, DAT (Rattus norvegicus, UniProt P23977); test: [3H]dopamine uptake inhibition at DAT in rat brain synaptosomes; settings: for DAT/SERT ratio (uptake inhibition): (DAT IC50^-1)/(SERT IC50^-1), higher value indicates greater DAT selectivity; for IC50: [3H]Dopamine uptake at DAT IC50, rat caudate synaptosomes, 5 nM [3H]dopamine, mean ± SD, N=3
T1 sequence (P23977 whole entry): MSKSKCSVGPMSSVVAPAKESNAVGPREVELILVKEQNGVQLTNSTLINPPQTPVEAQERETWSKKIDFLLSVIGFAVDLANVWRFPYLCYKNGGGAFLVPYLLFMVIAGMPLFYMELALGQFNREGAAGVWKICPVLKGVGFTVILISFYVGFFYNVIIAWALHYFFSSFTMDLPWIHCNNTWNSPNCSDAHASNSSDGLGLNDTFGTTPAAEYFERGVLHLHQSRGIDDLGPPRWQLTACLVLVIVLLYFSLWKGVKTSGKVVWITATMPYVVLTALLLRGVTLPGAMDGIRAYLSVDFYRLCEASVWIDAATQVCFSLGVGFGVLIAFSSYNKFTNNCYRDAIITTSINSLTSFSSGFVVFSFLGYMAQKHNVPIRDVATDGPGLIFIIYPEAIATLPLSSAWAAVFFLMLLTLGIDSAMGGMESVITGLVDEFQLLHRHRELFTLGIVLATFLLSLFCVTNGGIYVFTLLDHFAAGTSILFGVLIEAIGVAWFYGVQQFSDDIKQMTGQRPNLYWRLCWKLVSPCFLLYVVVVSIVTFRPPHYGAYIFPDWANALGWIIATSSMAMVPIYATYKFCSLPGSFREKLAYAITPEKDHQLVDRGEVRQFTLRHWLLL

NET [2] = biological target: T2, NET (Rattus norvegicus, UniProt Q63380); test: [3H]norepinephrine uptake inhibition at NET in rat brain synaptosomes; settings: [3H]Norepinephrine uptake at NET IC50, rat brain synaptosomes, 10 nM [3H]norepinephrine; mean ± SD, N=3
T2 sequence (Q63380 1-617): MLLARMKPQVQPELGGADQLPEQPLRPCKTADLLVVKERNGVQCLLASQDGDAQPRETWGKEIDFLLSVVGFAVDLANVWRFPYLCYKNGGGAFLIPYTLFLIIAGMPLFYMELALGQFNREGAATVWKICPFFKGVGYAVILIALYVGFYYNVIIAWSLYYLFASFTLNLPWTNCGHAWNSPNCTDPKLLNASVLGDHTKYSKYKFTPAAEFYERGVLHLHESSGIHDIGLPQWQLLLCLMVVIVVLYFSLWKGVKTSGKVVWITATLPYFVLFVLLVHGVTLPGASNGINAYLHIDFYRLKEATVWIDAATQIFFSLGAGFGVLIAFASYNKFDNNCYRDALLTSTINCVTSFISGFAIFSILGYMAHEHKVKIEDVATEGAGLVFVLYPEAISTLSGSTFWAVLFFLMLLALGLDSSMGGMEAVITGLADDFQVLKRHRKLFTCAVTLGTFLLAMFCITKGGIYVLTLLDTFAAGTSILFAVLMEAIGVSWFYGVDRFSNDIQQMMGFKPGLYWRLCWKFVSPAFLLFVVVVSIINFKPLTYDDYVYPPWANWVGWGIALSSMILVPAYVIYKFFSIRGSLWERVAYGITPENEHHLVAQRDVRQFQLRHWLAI

DAT [3] = biological target: T1, DAT; test: [3H]MPP+ release at DAT in rat brain synaptosomes; settings: for DAT/SERT ratio (release): (DAT EC50^-1)/(SERT EC50^-1), higher value indicates greater DAT selectivity; for Emax: read-out: Release at DAT % Emax
NET [4] = biological target: T2, NET; test: [3H]MPP+ release at NET in rat brain synaptosomes; settings: for Emax: read-out: Release at NET % Emax
SERT [5] = biological target: T3, SERT (Rattus norvegicus, UniProt P31652); test: [3H]5-HT release at SERT in rat brain synaptosomes; settings: for Emax: read-out: Release at SERT % Emax
T3 sequence (P31652 whole entry): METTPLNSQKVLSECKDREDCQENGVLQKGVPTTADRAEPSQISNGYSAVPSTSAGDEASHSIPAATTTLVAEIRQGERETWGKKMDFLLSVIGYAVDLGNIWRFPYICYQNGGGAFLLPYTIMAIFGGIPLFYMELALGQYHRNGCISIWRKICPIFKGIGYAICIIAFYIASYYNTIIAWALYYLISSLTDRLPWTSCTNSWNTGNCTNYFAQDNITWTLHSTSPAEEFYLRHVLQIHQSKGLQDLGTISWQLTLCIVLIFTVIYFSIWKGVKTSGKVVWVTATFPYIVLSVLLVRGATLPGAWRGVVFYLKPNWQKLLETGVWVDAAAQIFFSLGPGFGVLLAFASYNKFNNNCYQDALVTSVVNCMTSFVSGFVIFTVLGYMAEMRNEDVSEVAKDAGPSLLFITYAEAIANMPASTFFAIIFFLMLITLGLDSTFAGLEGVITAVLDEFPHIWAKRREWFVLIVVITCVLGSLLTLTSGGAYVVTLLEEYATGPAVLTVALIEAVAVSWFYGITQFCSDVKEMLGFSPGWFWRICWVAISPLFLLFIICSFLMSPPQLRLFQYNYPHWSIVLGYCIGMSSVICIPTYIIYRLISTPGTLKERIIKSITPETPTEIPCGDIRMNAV

SERT [6] = biological target: T3, SERT; test: [3H]5-HT uptake inhibition at SERT in rat brain synaptosomes

SMILES	DAT/SERT ratio (uptake inhibition) (DAT [1])	IC50 (DAT [1]) [nM]	IC50 (NET [2]) [nM]	EC50 (DAT [3]) [nM]	DAT/SERT ratio (release) (DAT [3])	Emax (DAT [3]) [%]	EC50 (NET [4]) [nM]	Emax (NET [4]) [%]	EC50 (SERT [5]) [nM]	Emax (SERT [5]) [%]	IC50 (SERT [6]) [nM]	fold more potent than 2-MPM at DAT (uptake inhibition) (DAT [1]; relative to 2-MPM)	fold more potent than 2-MPM and phenmetrazine at SERT (uptake inhibition) (SERT [6]; relative to 2-MPM and phenmetrazine) [fold]	releaser activity at SERT (in words) (SERT [5]; rat brain synaptosomes)
Cc1ccccc1C1OCCNC1C (stereo not shown) [2-MPM, 3-Methyl-2-(2-methylphenyl)morpholine]	0.6	6590 ± 1310	2600 ± 633	374 ± 38	4.7	104	102 ± 12	91	1760 ± 336	101	4010 ± 317			
Cc1cccc(C2OCCNC2C)c1 (stereo not shown) [3-MPM, 3-Methyl-2-(3-methylphenyl)morpholine]		> 10000	5210 ± 1650	1320 ± 218	4.1	110	509 ± 73	90	5380 ± 947	111	> 10000			
Cc1ccc(C2OCCNC2C)cc1 (stereo not shown) [4-MPM, 3-Methyl-2-(4-methylphenyl)morpholine]	0.2	1930 ± 207	1930 ± 392	227 ± 30	0.4	99	62 ± 9	90	86 ± 12	88	408 ± 17	about 3.5 fold	~10	
CC1NCCOC1c1ccccc1 (stereo not shown) [Phenmetrazine, 3-methyl-2-phenylmorpholine, reference compound]		933 ± 57	1160 ± 197	70 ± 9		101	29 ± 4	95	> 10000		3570 ± 836			negligible activity
